In the supplement of paper PMC11061612:

Experiments:
[1] = compound: COc1cccc2c1C(=O)c1c(O)c3c(c(O)c1C2=O)C[C@@](O)(C(=O)CO)C[C@@H]3O[C@H]1C[C@H](N)[C@H](O)[C@H](C)O1 [Doxorubicin]; details: max 1 µM
In short: (§1)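 Following 24 hours at 37°C and 5% CO2, cancer cell lines in 1536-well plates with 7.5 μl DMEM/F12 or RPMI and 10% FBS were dosed for 72 hours, final DMSO typically being 0.2%. CellTiter-Glo 2.0 luminescence, scaled between blank-well and DMSO-well means, gave the viability readout. Dose responses were fitted to a two-parameter logistic curve with a non-linear mixed effects model, and the single-agent IC50 was derived from this fit.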

[2] = compound: COc1cccc(OCCCN)c1-c1cc(Nc2cnc(C#N)cn2)n[nH]1 [Prexasertib]; details: max 1 µM
In short: as §1

[3] = compound: Cn1cnc2c(F)c(Nc3ccc(Br)cc3Cl)c(C(=O)NOCCO)cc21 [Selumetinib]; details: max 10 µM
In short: as §1

[4] = compound: C[C@@H](c1ccc2nccn2c1)n1nnc2ncc(-c3cnn(C)c3)nc21 [Savolitinib]; details: max 1 µM
In short: as §1

[5] = compound: C[C@@H]1COCCN1C2=NC(=NC(=C2)C3(CC3)[S@](=N)(=O)C)C4=C5C=CNC5=NC=C4 [AZD6738]; details: max 10 µM
In short: as §1

[6] = compound: CC(C)n1c(=O)n(C)c2cnc3cc(F)c(-c4ccc(OCCCN5CCCCC5)nc4)cc3c21 [AZD1390]; details: max 0.3 µM
In short: as §1

[7] = compound: CS(=O)(=O)CCNCc1ccc(-c2ccc3ncnc(Nc4ccc(OCc5cccc(F)c5)c(Cl)c4)c3c2)o1 [Lapatinib]; details: max 10 µM
In short: as §1

[8] = compound: CC(=O)Nc1cccc(-n2c(=O)n(C3CC3)c(=O)c3c(Nc4ccc(I)cc4F)n(C)c(=O)c(C)c32)c1 [Trametinib]; details: max 1 µM
In short: as §1

[9] = compound: COc1cc(Nc2ncc3c(n2)-c2ccc(Cl)cc2C(c2c(F)cccc2OC)=NC3)ccc1C(=O)O [Alisertib]; details: max 10 µM
In short: as §1

[10] = compound: CCN(CCO)CCCOc1ccc2c(Nc3cc(CC(=O)Nc4cccc(F)c4)[nH]n3)ncnc2c1 [AZD2811]; details: max 1 µM
In short: as §1

[11] = compound: Cc1c2c(nn1C)CSCc1cc(n(C)n1)CSc1cc(c3ccccc3c1)OCCCc1c(C(=O)O)n(C)c3c-2c(Cl)ccc13 [AZD5991]; details: max 1 µM
In short: as §1

[12] = compound: CC(=O)c1c(C)c2cnc(Nc3ccc(N4CCNCC4)cn3)nc2n(C2CCCC2)c1=O [Palbociclib]; details: max 10 µM
In short: as §1

[13] = compound: Cc1nc(-c2cn3c(n2)-c2ccc(-c4cnn(C(C)(C)C(N)=O)c4)cc2OCC3)n(C(C)C)n1 [Taselisib]; details: max 10 µM
In short: as §1

[14] = compound: CN(CC[C@H](CSC1=CC=CC=C1)NC2=C(C=C(C=C2)S(=O)(=O)NC(=O)C3=CC=C(C=C3)N4CCC(CC4)[C@H](C5=CC=CC=C5C6=CC=C(C=C6)Cl)O)S(=O)(=O)C(F)(F)F)CCO [AZD4320]; details: max 1 µM
In short: as §1

[15] = compound: CC1=CN2[C@@H](C1)C=NC3=CC(=C(C=C3C2=O)OC)OCCCCCOC4=C(C=C5C(=C4)N=C[C@@H]6CC(=CN6C5=O)C)OC [SG3199]; details: max 0.001 µM
In short: as §1

[16] = compound: O=c1[nH]cc(F)c(=O)[nH]1 [5-Fluorouracil]; details: max 20 µM
In short: as §1

[17] = compound: C[C@@H](Nc1cc(F)cc(F)c1)c1cc(C(=O)N(C)C)cc2c(=O)cc(N3CCOCC3)oc12 [AZD8186]; details: max 10 µM
In short: as §1

[18] = compound: Cc1cc2ncnn2cc1Nc1ncc2c(n1)n(C1CCOCC1)c(=O)n2C [AZD7648]; details: max 10 µM
In short: as §1

[19] = compound: CCc1c2c(nc3ccc(O)cc13)-c1cc3c(c(=O)n1C2)COC(=O)[C@]3(O)CC [SN-38]; details: max 0.3 µM
In short: as §1

[20] = compound: C[C@@H](Oc1cc(-c2cnn(C3CCNCC3)c2)cnc1N)c1c(Cl)ccc(F)c1Cl [Crizotinib]; details: max 10 µM
In short: as §1

[21] = compound: CC(=O)O[C@H]1C(=O)[C@@]2(C)[C@H]([C@H](OC(=O)c3ccccc3)[C@]3(O)C[C@H](OC(=O)[C@H](O)[C@@H](NC(=O)c4ccccc4)c4ccccc4)C(C)=C1C3(C)C)[C@]1(OC(C)=O)CO[C@@H]1C[C@@H]2O [Paclitaxel]; details: max 3 µM
In short: as §1

[22] = compound: N#Cc1cnc(Nc2cc(NC[C@H]3CNCCO3)c(C(F)(F)F)cn2)cn1 [SRA737]; details: max 10 µM
In short: as §1

[23] = compound: C1CN(CCC1(C(=O)N[C@@H](CCO)C2=CC=C(C=C2)Cl)N)C3=NC=NC4=C3C=CN4 [AZD5363]; details: max 10 µM
In short: as §1

[24] = compound: COc1cc([C@@H]2c3cc4c(cc3[C@@H](O[C@@H]3O[C@@H]5CO[C@@H](C)O[C@H]5[C@H](O)[C@H]3O)[C@H]3COC(=O)[C@H]23)OCO4)cc(OC)c1O [Etoposide]; details: max 10 µM
In short: as §1

[25] = compound: O=C(Nc1ccc2[nH]nc(-c3ccncc3)c2c1)[C@@H]1CCN(CC(=O)N2CCN(c3ccc(-c4ncccn4)cc3)CC2)C1; details: max 5 µM
In short: as §1

[26] = compound: CN(C)CCCOc1ccc(-c2ccc3ncc4c(c3c2)n(C2CCOCC2)c(=O)n4C)cn1 [AZD0156]; details: max 3 µM
In short: as §1

[27] = compound: COc1cc2ncnc(Nc3ccc(F)c(Cl)c3)c2cc1OCCCN1CCOCC1 [Gefitinib]; details: max 10 µM
In short: as §1

[28] = compound: COc1nnc2ccc(N3CCC(c4ccc(OCCN5CCN(C)C(=O)[C@H]5C)cc4)CC3)nn12 [AZD5153]; details: max 1 µM
In short: as §1

[29] = compound: NC1(c2ccc(-c3nc4ccn5c(=O)[nH]nc5c4cc3-c3ccccc3)cc2)CCC1 [MK-2206]; details: max 10 µM
In short: as §1

[30] = compound: Nc1ccn([C@@H]2O[C@H](CO)[C@@H](O)C2(F)F)c(=O)n1 [Gemcitabine]; details: max 0.3 µM
In short: as §1

[31] = compound: CC1(C)CCC(CN2CCN(c3ccc(C(=O)NS(=O)(=O)c4ccc(NCC5CCOCC5)c([N+](=O)[O-])c4)c(Oc4cnc5[nH]ccc5c4)c3)CC2)=C(c2ccc(Cl)cc2)C1 [Venetoclax]; details: max 1 µM
In short: as §1

[32] = compound: C=CCn1c(=O)c2cnc(Nc3ccc(N4CCN(C)CC4)cc3)nc2n1-c1cccc(C(C)(C)O)n1 [AZD1775]; details: max 3 µM
In short: as §1

[33] = compound: O=C(c1cc(Cc2n[nH]c(=O)c3ccccc23)ccc1F)N1CCN(C(=O)C2CC2)CC1 [Olaparib]; details: max 10 µM
In short: as §1

[34] = compound: C1CC(C1)(C(=O)[O-])C(=O)[O-].N.N.[Pt+2] [Carboplatin]; details: max 10 µM
In short: as §1

[35] = compound: CC1=C(C(=CC=C1)Cl)NC(=O)C2=CN=C(S2)NC3=CC(=NC(=N3)C)N4CCN(CC4)CCO [Dasatinib]; details: max 2 µM
In short: as §1

Cell Line	IC50, cell viability 72 h [1] [nM]	IC50, cell viability 72 h [2] [nM]	IC50, cell viability 72 h [3] [µM]	IC50, cell viability 72 h [4] [nM]	IC50, cell viability 72 h [5] [µM]	IC50, cell viability 72 h [6] [nM]	IC50, cell viability 72 h [7] [µM]	IC50, cell viability 72 h [8] [nM]	IC50, cell viability 72 h [9] [µM]	IC50, cell viability 72 h [10] [nM]	IC50, cell viability 72 h [11] [nM]	IC50, cell viability 72 h [12] [µM]	IC50, cell viability 72 h [13] [nM]	IC50, cell viability 72 h [14] [nM]	IC50, cell viability 72 h [15] [nM]	IC50, cell viability 72 h [16] [µM]	IC50, cell viability 72 h [17] [µM]	IC50, cell viability 72 h [18] [µM]	IC50, cell viability 72 h [19] [nM]	IC50, cell viability 72 h [20] [µM]	IC50, cell viability 72 h [21] [nM]	IC50, cell viability 72 h [22] [µM]	IC50, cell viability 72 h [23] [µM]	IC50, cell viability 72 h [24] [µM]	IC50, cell viability 72 h [25] [µM]	IC50, cell viability 72 h [26] [nM]	IC50, cell viability 72 h [27] [µM]	IC50, cell viability 72 h [28] [nM]	IC50, cell viability 72 h [29] [µM]	IC50, cell viability 72 h [30] [nM]	IC50, cell viability 72 h [31] [nM]	IC50, cell viability 72 h [32] [nM]	IC50, cell viability 72 h [33] [µM]	IC50, cell viability 72 h [34] [µM]	IC50, cell viability 72 h [35] [nM]
8305C (Thyroid Gland Carcinoma)	> 1000	87.8	> 10	> 1000	> 10	> 300	> 10	902	> 10	> 1000	> 1000	> 10	1280	> 1000	> 1	> 20	> 10	> 10	> 300	> 10	159	> 10	> 10	> 10	> 5	> 3000	> 10	> 1000	> 10	> 300	> 1000	1940	> 10	> 10	1150
CAL-54 (Kidney Carcinoma)	936	38.5	> 10	> 1000	5.49	> 300	7.99	> 1000	4.71	> 1000	> 1000	4.13	2280	> 1000	> 1	> 20	0.873	> 10	15.6	> 10	399	> 10	9.91	> 10	> 5	> 3000	5.89	102	3.36	23.4	> 1000	452	> 10	> 10	33.6
CAPAN-1 (Pancreatic Carcinoma)	> 1000	485	> 10	> 1000	> 10	> 300	> 10	349	> 10	> 1000	> 1000	> 10	> 10000	> 1000	> 1	> 20	> 10	> 10	38.8	> 10	188	> 10	> 10	> 10	2.79	> 3000	> 10	> 1000	> 10	130	> 1000	1230	> 10	> 10	> 2000
EN (Endometrial Carcinoma)	> 1000	41.3	> 10	> 1000	8.64	> 300	> 10	> 1000	3.67	947	> 1000	> 10	2730	> 1000	> 1	> 20	> 10	> 10	> 300	> 10	798	> 10	5.5	> 10	> 5	> 3000	> 10	> 1000	8.08	> 300	> 1000	770	> 10	> 10	> 2000
HARA (Squamous Cell Lung Carcinoma)	577	13.9	> 10	> 1000	1.73	> 300	7.69	858	3.82	> 1000	> 1000	7.42	2150	> 1000	> 1	18.3	> 10	> 10	44.5	> 10	3.63	1	9.16	9.59	3.84	> 3000	> 10	223	> 10	56	> 1000	207	> 10	> 10	> 2000
